Assay results from patent US20250368666A1, “INDAZOLE COMPOUNDS” (TYRA BIOSCIENCES, INC., priority 2022, published 2025).

Experiments:
[1] = tested on: HuH7 cell line (FGF19 amplification); experiment: Cancer cell line cell viability assay (Cell Titer-Glo), 120 hr; format: cell-based; conditions: Homo sapiens, Huh-7
Procedure, shortened: (§1)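 Intracellular ATP was measured by Cell Titer-Glo 2.0 luminescence after cells were incubated with compound dilutions (top 3 μM, 4-fold, 9 doses). Values were expressed relative to DMSO-treated cells and IC50 was calculated from a variable-slope dose-response curve.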

[2] = tested on: MDA-MB-453 cell line (FGFR4-Y367C); experiment: as above; format: cell-based; conditions: Homo sapiens
Procedure, shortened: as §1

[3] = tested on: KG-1 cell line (FGFR 1-fusion); experiment: Cancer cell line cell viability assay (Cell Titer-Glo), 72 hr; format: cell-based; conditions: Homo sapiens, KG-1, KG-1 cell line (FGFR1-fusion)
Procedure, shortened: as §1

[4] = tested on: RT112/84 cell line (FGFR3-fusion); experiment: as above; format: cell-based; conditions: Homo sapiens, RT112/84, RT112/84 cell line (FGFR3-fusion)
Procedure, shortened: as §1

[5] = tested on: KATO-III cell line (FGFR2 amplification); experiment: as above; format: cell-based; conditions: Homo sapiens, KATO III
Procedure, shortened: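 Luminescent ATP read-out (Cell Titer-Glo 2.0) after compound exposure, normalised to DMSO-only wells. Dosing: 9 concentrations, 4-fold steps, top 3 μM, triplicates. IC50 derived by log(inhibitor) vs. response 4-parameter fit.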

[6] = target: T1, FGFR3 (V555M) (Homo sapiens, UniProt P22607, V555M); experiment: Kinase binding assay (kinase-tagged T7 phage, affinity beads, qPCR), Kd; conditions: V555M mutant; read-out: FGFR3 (V555M) (Kd nM)
T1 construct: made in house; host or cells: E. coli (BL21-derived), T7 phage
T1 sequence (P22607 23-806 V555M): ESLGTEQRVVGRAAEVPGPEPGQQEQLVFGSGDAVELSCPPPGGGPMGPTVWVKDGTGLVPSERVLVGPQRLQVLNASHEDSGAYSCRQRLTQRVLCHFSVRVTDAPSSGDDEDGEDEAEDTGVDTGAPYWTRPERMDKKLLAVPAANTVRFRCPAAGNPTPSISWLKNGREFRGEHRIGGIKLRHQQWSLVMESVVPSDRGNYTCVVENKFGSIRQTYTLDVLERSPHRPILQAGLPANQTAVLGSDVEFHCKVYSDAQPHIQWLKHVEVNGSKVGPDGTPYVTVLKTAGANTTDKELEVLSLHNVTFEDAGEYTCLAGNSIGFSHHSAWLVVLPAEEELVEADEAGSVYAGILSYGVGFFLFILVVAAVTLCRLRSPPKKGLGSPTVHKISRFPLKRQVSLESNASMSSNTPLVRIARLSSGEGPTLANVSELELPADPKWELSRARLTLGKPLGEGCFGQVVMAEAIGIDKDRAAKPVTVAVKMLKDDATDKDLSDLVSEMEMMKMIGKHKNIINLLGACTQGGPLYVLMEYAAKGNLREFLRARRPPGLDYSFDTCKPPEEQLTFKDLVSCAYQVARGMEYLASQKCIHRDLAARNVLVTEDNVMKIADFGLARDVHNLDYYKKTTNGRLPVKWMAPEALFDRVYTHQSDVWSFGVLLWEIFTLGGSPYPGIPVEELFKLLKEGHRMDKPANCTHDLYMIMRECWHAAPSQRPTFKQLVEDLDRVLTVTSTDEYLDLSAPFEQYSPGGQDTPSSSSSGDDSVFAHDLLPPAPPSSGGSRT
Procedure, shortened: (§2)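 Competition binding; kinase-tagged T7 phage lysate vs immobilised biotinylated ligand on streptavidin beads, 0.9% DMSO final. 11-pt 3-fold dilutions, 3 DMSO controls. qPCR of eluted kinase; Kd by Hill fit, slope −1.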

[7] = target: T2, FGFR3 (Homo sapiens, UniProt P22607); experiment: as above; conditions: read-out: FGFR3 (Kd nM)
T2 construct: made in house; host or cells: E. coli (BL21-derived), T7 phage
T2 sequence (P22607 23-806): as the sequence (P22607 23-806 V555M) above, with M533V counted along it
Procedure, shortened: as §2

[8] = target: T3, FGFR4 (Homo sapiens, UniProt P22455); experiment: as above; conditions: read-out: FGFR4 (Kd nM)
T3 construct: made in house; host or cells: E. coli (BL21-derived), T7 phage
T3 sequence (P22455 22-802): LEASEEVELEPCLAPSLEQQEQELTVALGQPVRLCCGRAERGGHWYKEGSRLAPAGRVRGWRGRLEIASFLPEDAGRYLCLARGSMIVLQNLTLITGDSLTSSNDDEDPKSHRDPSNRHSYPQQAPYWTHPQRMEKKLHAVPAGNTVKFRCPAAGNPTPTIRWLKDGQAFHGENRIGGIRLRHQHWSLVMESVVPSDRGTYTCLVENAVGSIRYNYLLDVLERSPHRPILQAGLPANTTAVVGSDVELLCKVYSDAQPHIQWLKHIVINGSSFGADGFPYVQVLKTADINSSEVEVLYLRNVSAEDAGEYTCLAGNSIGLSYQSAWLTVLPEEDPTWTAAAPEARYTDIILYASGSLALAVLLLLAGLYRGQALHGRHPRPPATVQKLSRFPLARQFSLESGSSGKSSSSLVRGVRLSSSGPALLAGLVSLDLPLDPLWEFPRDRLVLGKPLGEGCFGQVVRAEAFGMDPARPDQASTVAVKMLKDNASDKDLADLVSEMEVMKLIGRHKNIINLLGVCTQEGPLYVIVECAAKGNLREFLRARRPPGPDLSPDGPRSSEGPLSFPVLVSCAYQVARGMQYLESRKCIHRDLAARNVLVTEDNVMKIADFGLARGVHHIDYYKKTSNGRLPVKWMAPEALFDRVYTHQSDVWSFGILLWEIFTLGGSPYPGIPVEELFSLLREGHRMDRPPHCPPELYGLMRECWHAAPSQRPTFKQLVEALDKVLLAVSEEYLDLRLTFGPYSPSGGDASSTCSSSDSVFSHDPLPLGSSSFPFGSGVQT
Procedure, shortened: as §2

[9] = target: T4, FGFR1 (Homo sapiens, UniProt P11362); experiment: as above; conditions: read-out: FGFR1 (Kd nM)
T4 construct: made in house; host or cells: E. coli (BL21-derived), T7 phage
T4 sequence (P11362 22-822): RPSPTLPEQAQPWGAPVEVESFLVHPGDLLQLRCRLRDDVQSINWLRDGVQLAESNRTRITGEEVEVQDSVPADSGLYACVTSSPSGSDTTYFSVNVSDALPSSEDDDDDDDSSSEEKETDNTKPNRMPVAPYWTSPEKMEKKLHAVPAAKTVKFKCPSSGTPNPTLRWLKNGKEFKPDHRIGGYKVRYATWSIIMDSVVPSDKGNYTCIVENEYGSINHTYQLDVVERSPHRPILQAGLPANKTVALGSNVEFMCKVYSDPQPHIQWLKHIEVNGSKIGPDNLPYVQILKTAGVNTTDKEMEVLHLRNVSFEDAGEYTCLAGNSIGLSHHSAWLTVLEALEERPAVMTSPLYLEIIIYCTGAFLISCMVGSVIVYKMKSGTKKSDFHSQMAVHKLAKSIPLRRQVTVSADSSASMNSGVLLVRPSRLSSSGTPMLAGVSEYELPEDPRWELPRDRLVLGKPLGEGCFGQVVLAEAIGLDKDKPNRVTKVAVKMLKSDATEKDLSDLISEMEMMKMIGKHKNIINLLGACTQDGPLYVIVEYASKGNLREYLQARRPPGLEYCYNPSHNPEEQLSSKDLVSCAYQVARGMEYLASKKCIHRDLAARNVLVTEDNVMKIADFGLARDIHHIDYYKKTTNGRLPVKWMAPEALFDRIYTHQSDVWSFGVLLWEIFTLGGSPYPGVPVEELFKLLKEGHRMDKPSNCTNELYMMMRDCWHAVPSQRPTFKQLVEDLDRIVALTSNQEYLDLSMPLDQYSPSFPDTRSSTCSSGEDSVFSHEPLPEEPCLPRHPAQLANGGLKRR
Procedure, shortened: as §2

[10] = target: T5, FGFR2 (Homo sapiens, UniProt P21802); experiment: as above; conditions: read-out: FGFR2 (Kd nM)
T5 construct: made in house; host or cells: E. coli (BL21-derived), T7 phage
T5 sequence (P21802 22-821): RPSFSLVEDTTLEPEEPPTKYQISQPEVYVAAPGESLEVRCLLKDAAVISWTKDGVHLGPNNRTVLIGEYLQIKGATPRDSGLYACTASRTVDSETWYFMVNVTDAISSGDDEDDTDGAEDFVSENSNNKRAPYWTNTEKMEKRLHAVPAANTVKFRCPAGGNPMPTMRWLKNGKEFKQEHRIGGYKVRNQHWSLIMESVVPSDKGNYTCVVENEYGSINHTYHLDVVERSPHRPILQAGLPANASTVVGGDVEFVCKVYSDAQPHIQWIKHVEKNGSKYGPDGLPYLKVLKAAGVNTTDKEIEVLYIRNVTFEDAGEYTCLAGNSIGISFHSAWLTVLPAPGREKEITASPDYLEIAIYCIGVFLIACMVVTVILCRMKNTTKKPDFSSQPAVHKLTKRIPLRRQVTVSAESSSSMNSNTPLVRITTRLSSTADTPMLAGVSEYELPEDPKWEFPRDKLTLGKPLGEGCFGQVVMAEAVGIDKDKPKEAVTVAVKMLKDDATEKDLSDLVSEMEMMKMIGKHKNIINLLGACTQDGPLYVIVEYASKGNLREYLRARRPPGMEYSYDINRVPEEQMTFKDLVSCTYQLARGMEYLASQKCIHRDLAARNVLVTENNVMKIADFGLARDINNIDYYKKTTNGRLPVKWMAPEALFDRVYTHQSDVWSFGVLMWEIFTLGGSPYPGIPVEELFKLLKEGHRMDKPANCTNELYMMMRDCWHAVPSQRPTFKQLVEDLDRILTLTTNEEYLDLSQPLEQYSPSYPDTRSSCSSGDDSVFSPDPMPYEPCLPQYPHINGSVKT
Procedure, shortened: as §2

Row | IC50 [1] | IC50 [2] | IC50 [3] | IC50 [4] | IC50 [5] | Kd [6] | Kd [7] | Kd [8] | Kd [9] | Kd [10] | Structure (SMILES)
1 | 0.0001 to 0.05 µM | 0.05 to 0.2 µM | 0.05 to 0.2 µM | 0.0001 to 0.05 µM | 0.05 to 0.2 µM | 1 to 50 nM | 1 to 50 nM | 1 to 50 nM | 1 to 50 nM | 1 to 50 nM | CC[C@@H](C)NC1(C)CN(c2ncc(-c3n[nH]c4ccc(O[C@H](C)c5c(Cl)cncc5Cl)cc34)cc2F)C1 [Example 140, 1-[5-[5-[(1R)-1-(3,5-dichloro-4-pyridyl)ethoxy]-1H-indazol-3-yl]-3-fluoro-2-pyridyl]-3-methyl-N-[(1R)-1-methylpropyl]azetidin-3-amine]
2 | 0.0001 to 0.05 µM | 0.05 to 0.2 µM | 0.05 to 0.2 µM | 0.0001 to 0.05 µM | 0.05 to 0.2 µM | 1 to 50 nM | 1 to 50 nM | 1 to 50 nM | 1 to 50 nM | 1 to 50 nM | CC[C@H](C)NC1(C)CN(c2ncc(-c3n[nH]c4ccc(O[C@H](C)c5c(Cl)cncc5Cl)cc34)cc2F)C1 [Example 141, 1-[5-[5-[(1R)-1-(3,5-dichloro-4-pyridyl)ethoxy]-1H-indazol-3-y1]-3-fluoro-2-pyridyl]-3-methyl-N-[(1S)-1-methylpropyl]azetidin-3-amine]
3 | 0.0001 to 0.05 µM | 0.05 to 0.2 µM | 0.05 to 0.2 µM | 0.0001 to 0.05 µM | 0.05 to 0.2 µM | 1 to 50 nM | 1 to 50 nM | 1 to 50 nM | 1 to 50 nM | 1 to 50 nM | CCCNC1(C)CN(c2ncc(-c3n[nH]c4ccc(O[C@H](C)c5c(Cl)cncc5Cl)cc34)cc2F)C1 [Example 142, 1-[5-[5-[(1R)-1-(3,5-dichloro-4-pyridyl)ethoxy]-1H-indazol-3-yl]-3-fluoro-2-pyridyl]-3-methyl-N-propyl-azetidin-3-amine]
4 | 0.0001 to 0.05 µM | 0.05 to 0.2 µM | 0.05 to 0.2 µM | 0.0001 to 0.05 µM | 0.05 to 0.2 µM | 1 to 50 nM | 1 to 50 nM | 1 to 50 nM | 1 to 50 nM | 1 to 50 nM | C=CCNC1(C)CN(c2ncc(-c3n[nH]c4ccc(O[C@H](C)c5c(Cl)cncc5Cl)cc34)cc2F)C1 [Example 148, (R)-N-ally1-1-(5-(5-(1-(3,5-dichloropyridin-4-yl)ethoxy)-1H-indazol-3-yl)-3-fluoropyridin-2-yl)-3-methylazetidin-3-amine]
5 | 0.0001 to 0.05 µM | 0.0001 to 0.05 µM | 0.2 to 1 µM | 0.0001 to 0.05 µM | 0.0001 to 0.05 µM | 1 to 50 nM | 1 to 50 nM | 1 to 50 nM | 1 to 50 nM | 1 to 50 nM | C[C@@H](Oc1ccc2[nH]nc(-c3cnc(N4CC(C)(N5CCP(C)(=O)CC5)C4)c(F)c3)c2c1)c1c(Cl)cncc1Cl [Example 198, (R)-1-(1-(5-(5-(1-(3,5-dichloropyridin-4-yl)ethoxy)-1H-indazol-3-yl)-3-fluoropyridin-2-yl)-3-methylazetidin-3-yl)-4-methyl-1,4-azaphosphinane 4-oxide]
6 | 0.0001 to 0.05 µM | 0.0001 to 0.05 µM | 0.05 to 0.2 µM | 0.0001 to 0.05 µM | 0.05 to 0.2 µM | 1 to 50 nM | 1 to 50 nM | 1 to 50 nM | 1 to 50 nM | 1 to 50 nM | C[C@@H](Oc1ccc2[nH]nc(-c3cnc(N4CC(C)(CS(C)(=O)=O)C4)c(F)c3)c2c1)c1c(Cl)cncc1Cl [Example 199, (R)-5-(1-(3,5-dichloropyridin-4-yl)ethoxy)-3-(5-fluoro-6-(3-methyl-3-((methyl-sulfonyl)meth-yl)azetidin-1-yl)pyridin-3-yl)-1H-indazole]
7 | 0.0001 to 0.05 µM | 0.05 to 0.2 µM | 0.05 to 0.2 µM | 0.0001 to 0.05 µM | 0.0001 to 0.05 µM | 1 to 50 nM | 1 to 50 nM | 1 to 50 nM | 1 to 50 nM | 1 to 50 nM | C[C@@H](Oc1ccc2[nH]nc(-c3ccc(N4C[C@@H](CS(C)(=O)=O)[C@@H]4C)nc3)c2c1)c1c(Cl)cncc1Cl [Example 203, 5-((R)-1-(3,5-dichloropyridin-4-yl)ethoxy)-3-(6-((2S,3R)-2-methyl-3-((methyl-sulfonyl)meth-yl)azetidin-1-yl)pyridin-3-yl)-1H-indazole]
8 | 0.0001 to 0.05 µM | 0.05 to 0.2 µM | 0.05 to 0.2 µM | 0.0001 to 0.05 µM | 0.0001 to 0.05 µM | 1 to 50 nM | 1 to 50 nM | 1 to 50 nM | 1 to 50 nM | 1 to 50 nM | C[C@@H]1[C@@H](CS(C)(=O)=O)CN1c1ccc(-c2n[nH]c3ccc(O[C@H](C)c4c(Cl)cncc4Cl)cc23)cn1 [Example 204, 5-((R)-1-(3,5-dichloropyridin-4-yl)ethoxy)-3-(6-((2R,3S)-2-methyl-3-((methyl-sulfonyl)meth-yl)azetidin-1-yl)pyridin-3-yl)-1H-indazole]
